According to patent US6946465B2, “Immunosuppressive effects of pteridine derivatives” (4 AZA Bioscience NV, priority 1999, dated 2005):

Columns and labels:
Type in all cases: cell-based, human
[1] = test system: highly purified T cells stimulated by anti-CD28 mAb; assay: CD28 assay: T-cell proliferation stimulated by anti-CD28 mAb + PMA (BrdU); conditions: Table 1; anti-CD28 mAb + PMA 0.5 ng/ml, 48 h
Excerpt: (§1) Various models may be used for testing an immunosuppressive effect. In vivo, for example, different transplantation models are available. They are strongly influenced by different immunogenicities, depending on the donor and recipient species used and depending on the nature of the transplanted organ. The survival time of transplanted organs can thus be used to measure the suppression of the immune response. In vitro, the most used models are lymphocyte activation tests. Usually activation is measured via lymphocyte proliferation. Inhibition of proliferation thus always means immunosuppression under the experimental conditions applied. There exist different stimuli for lymphocyte activation: • a) co-culture of lymphocytes of […] (mixed lymphocyte reaction, hereinafter referred as MLR) in a so-called mixed lymphocyte culture test: lymphocytes expressing different minor and major antigens of the HLA-DR type (=alloantigens) activate each other non-specifically. • b) a CD3 assay here there is an activation of the T-lymphocytes via an exogenously added antibody (OKT3).
(§2) All reagents were dissolved in 0.5 ml dimethylsulfoxide (hereinafter referred as DMSO) and further diluted in culture medium before use for the following in vitro experiments. The commercially available culture medium consisted of RPMI-1640+10% foetal calf serum (FCS).
(§3) T cells were purified by removing non-T cells. Briefly, monocytes were removed by cold agglutination. The resulting lymphoid cells were further purified by a cell enrichment immunocolumn [Cellect Human T commercially available from Biotex, Edmonton, Alberta, Canada)] by a process of negative selection.
(§4) Highly purified T cells (10^6/ml) were stimulated by immobilized anti-CD3 or anti-CD28 monoclonal antibodies (hereinafter referred as mAb) in the presence of PMA. Anti-CD3 mAb (available from CLB, Amsterdam, Netherlands) were fixed on the 96-microwell plates by incubating the wells with 50 μl of mAb solution (1/800 dilution in culture medium). For anti-CD28 mAb (available from CLB, Amsterdam, Netherlands) 50 μl (1/650 dilution in culture medium) was added directly to the wells. Further, a 20 μl phorbol myristate acetate (hereinafter referred as PMA (commercially available from Sigma, St. Louis, Mo., USA) solution (final concentration: 0.5 ng/ml) was added. Subsequently, 20 μl of a compound described in some of the previous examples were added by serial dilution in triplicate wells. Finally 100 μl of the T-cell suspension (10^6/ml) was added. After 48-hour incubation at 37° C. in 5% CO2 20 μl of a bromo-deuridine (hereinafter referred as BrdU) 100 μM solution (commercially available as Cell Proliferation Elisa from Boehringer-Mannheim Belgium) was added to each well. After a further overnight incubation, T-cell proliferation was measured using a colorimetric immunoassay for qualification of cell proliferation based on the incorporation of BrdU during DNA synthesis. Optical density (hereinafter referred as OD) was measured by a Behring EL311 plate reader at 450 nm (reference wavelength: 690 nm). Inhibition of proliferation by a compound (drug) described in some of the previous examples was counted using the formula: [formula]

[2] = test system: peripheral blood mononuclear cells (PBMC) with allogeneic PBMC or RPMI1788 stimulator cells; assay: Mixed lymphocyte reaction (MLR) test, [3H]-thymidine incorporation; conditions: Table 1; 5 days incubation + 16 h thymidine
Excerpt: as §1, §2
Peripheral blood mononuclear cells (hereinafter referred as PBMC) were isolated from heparinized peripheral blood by density gradient centrifugation over Lymphoprep (Nycomed, Maorstua, Norway). Allogeneic PBMC or Eppstein-Barr Virus-transformed human B cells [commercially available under the trade name RPM11788 (ATCC name CCL156)] which strongly express B7-1 and B7-2 antigens were used as stimulator cells after irradiation with 30 Gy. MLR was performed in triplicate wells. After 5 days incubation at 37° C., 1 μCi [^3 H]-thymidine was added to each cup. After a further 16 hours incubation, cells were harvested and counted in a β-counter. Inhibition of proliferation by a compound (drug) described in some of the previous examples was counted using the formula: [formula] wherein cpm is the thymidine count per minute. Assays for CD3 and CD 28

[3] = test system: highly purified T cells stimulated by immobilized anti-CD3 mAb; assay: CD3 assay: T-cell proliferation stimulated by anti-CD3 mAb + PMA (BrdU); conditions: Table 1; anti-CD3 mAb + PMA 0.5 ng/ml, 48 h; read-out: CD 3 IC50
Excerpt: as §1, §2, §3, §4

| Structure (SMILES) | IC50 [1] [µM] | IC50 [2] [µM] | IC50 [3] [µM] |
| --- | --- | --- | --- |
| Cn1c(=O)c2nc(/C=C/c3cccnc3)cnc2n(C)c1=O [Example 6, 1,3-dimethyl-6-[(E)-2-(pyrid-3-yl)vinyl]lumazine] | 110 | 30 | 110 |
| COC(=O)C=C(OC)c1cnc2c(n1)c(=O)n(C)c(=O)n2C [Example 16] | 80 | 70 | 80 |
| Cn1c(=O)c2nc(/C=C/c3ccncc3)cnc2n(C)c1=O [Example 7, 1,3-dimethyl-6-[(E)-2-(pyrid-4-yl)vinyl]lumazine] | 150 | 20 | 150 |
| Cn1c(=O)c2nc(C=Cc3ccc(C(F)(F)F)cc3)cnc2n(C)c1=O [Example 77, 6-[2-(p-trifluoromethylphenyl)ethenyl]-1,3-dimethyllumazine] | 140 | 17 | > 200 |
| Cn1c(=O)[nH]c2nc(O)c(-c3ccccc3)nc2c1=O [Example 42, 7-hydroxy-3-methyl-6-phenyllumazine] | 25 | 55 | 20 |
| Cn1c(=O)[nH]c(=O)c2nc(-c3ccccc3)c(-c3ccccc3)nc21 [Example 41, 1-methyl-6,7-diphenyllumazine] | 25 | 35 | 25 |
| CCOc1nc2c(nc1-c1ccccc1)c(=O)n(C)c(=O)n2C [Example 33, 7-ethoxy-1,3-dimethyl-6-phenyllumazine] | 70 | 40 | 100 |
| Cn1c(=O)c2nc(C#N)c(Cl)nc2n(C)c1=O [Example 47, 6-cyano-7-chloro-1,3-dimethyl-lumazine] | 12 | 104 | 15 |
| CCSC(C[N+](=O)[O-])c1cnc2c(n1)c(=O)n(C)c(=O)n2C (stereo not drawn) [Example 19, 6-[(1-ethylthio-2-nitro)ethyl]-1,3-dimethyl-lumazine] | 0.09 | 4.5 | 0.35 |
| CCOC(=O)c1nc2c(=O)n(C)c(=O)n(C)c2nc1SCC [Example 65, 6-ethylcarboxylate-7-mercaptoethyl-1,3-dimethyl-lumazine] | 116 | 140 | 116 |
| Cn1c(=O)c2nc(C=C[N+](=O)[O-])cnc2n(C)c1=O [Example 18, 1,3-dimethyl-6-[(2-nitro)ethenyl]lumazine] | 0.4 | 12 | 0.8 |
| Cn1c(=O)c2nc(C#N)c(NC3CCCCC3)nc2n(C)c1=O [Example 55, 6-cyano-7-cyclohexylamino-1,3-dimethyl-lumazine] | 92 | 15 | 92 |
| Cn1c(=O)c2nc(C3OCCO3)c(Cl)nc2n(C)c1=O [Example 49, 6-(1,3-dioxolanyl)-7-chloro-1,3-dimethyl-lumazine] | 3.6 | 11 | 2.2 |
| Cn1c(=O)c2ncc(C(Br)=Cc3ccccc3)nc2n(C)c1=O [Example 28, 7-(1-bromo-2-phenyl)ethenyl-1,3-dimethyllumazine] | 2.7 | 2.7 | 2.4 |
| Cn1c(=O)c2nc(-c3ccccc3)c(S)nc2n(C)c1=O [Example 32, 1,3-dimethyl-6-phenyl-7-mercaptolumazine] | 25 | 25 | 25 |
| CC(C)Sc1nc2c(nc1C#N)c(=O)n(C)c(=O)n2C [Example 58, 6-cyano-7-mercaptoisopropyl-1,3-dimethyl-lumazine] | 116 | 116 | 104 |
| Cn1c(=O)c2nc(O)c(C=O)nc2n(C)c1=O [Example 46, 6-hydroxy-7-formyl-1,3-dimethyl-lumazine] | 80 | 72 | 104 |

| Structure (SMILES) | IC50 [1] [µM] | IC50 [2] [µM] | IC50 [3] [µM] |
| --- | --- | --- | --- |
| COc1nc2c(nc1C=Cc1ccccc1)c(=O)n(C)c(=O)n2C [Example 40, 7-methoxy-1,3-dimethyl-6-styryllumazine] | > 200 | 20 | > 200 |
| CC(C)CNc1nc2c(nc1C#N)c(=O)n(C)c(=O)n2C [Example 52, 6-cyano-7-isobutylamino-1,3-dimethyl-lumazine] | 80 | 116 | 116 |
| Cn1c(=O)c2nc(C=Cc3ccc(C(F)(F)F)cc3)cnc2n(C)c1=O [Example 78, 6-[2-(p-trifluoromethylphenyl)ethenyl]-1,3-dimethyllumazine] | 164 | 17 | > 200 |
| Cn1c(=O)c2nc(C(O)C[N+](=O)[O-])cnc2n(C)c1=O (stereo not drawn) [Example 17, 6-[(1-hydroxy-2-nitro)ethyl]-1,3-dimethyllumazine] | 15 | 90 | 25 |
| CC(C)Nc1nc2c(nc1C=O)c(=O)n(C)c(=O)n2C [Example 66, 6-formyl-7-isopropylamino-1,3-dimethyl-lumazine] | 92 | 92 | 68 |
| Cn1c(=O)c2nc(C=O)c(O)nc2n(C)c1=O [Example 45, 6-formyl-7-hydroxy-1,3-dimethyl-lumazine] | 9 | > 200 | 15.5 |
| CC(=O)Nc1nc2c(nc1C#N)c(=O)n(C)c(=O)n2C [Example 54, 6-cyano-7-acetenylamino-1,3-dimethyl-lumazine] | 80 | 140 | 104 |
| COC(=O)C(Br)C(Br)c1cnc2c(n1)c(=O)n(C)c(=O)n2C (stereo not drawn) [Example 11, 6-(1,2-dibromo-2-(methoxycarbonyl)ethyl)-1,3-dimethyllumazine] | 0.08 | 12 | 0.55 |
| C=CCNc1nc2c(nc1C(=O)OCC)c(=O)n(C)c(=O)n2C [Example 62, 6-ethylcarboxylate-7-(2-propenylamino)-1,3-dimethyl-lumazine] | 56 | 60 | 92 |
| Cn1c(=O)c2nc(-c3ccccc3)c(Cl)nc2n(C)c1=O [Example 34, 7-chloro-1,3-dimethyl-6-phenyllumazine] | 0.07 | 3.75 | 0.08 |
| Cn1c(=O)c2nc(C=O)c(N3CCCCCC3)nc2n(C)c1=O [Example 68, 6-formyl-7-(1-azacycloheptyl)-1,3-dimethyl-lumazine] | 116 | 80 | 80 |
| CCCn1c(=O)c2nc(-c3ccccc3)c(O)nc2n(CCC)c1=O [Example 44, 7-hydroxy-6-phenyl-1,3-di-n-propyllumazine] | 70 | 120 | 80 |
| CCOC(=O)CSc1nc2c(nc1C(Cl)Cl)c(=O)n(C)c(=O)n2C [Example 72, 6-dichloromethyl-7-ethylmercaptoacetate-1,3-dimethyl-lumazine] | 19 | 116 | > 20 |
| Cc1nc2c(=O)n(C)c(=O)n(C)c2nc1C=Cc1ccccc1 [Example 76, 7-(2-phenylethenyl)-1,3,6-trimethyl-lumazine] | 116 | 120 | 68 |
| Cn1c(=O)c2nc(/C=C/C=Cc3ccccc3)cnc2n(C)c1=O [Example 9, 1,3-dimethyl-6-[(E)-4-(phenyl)butadienyl]lumazine] | 140 | 75 | 140 |
| Cn1c(=O)c2nc(Cl)c(N3CCCCC3)nc2n(C)c1=O [Example 75, 6-chloro-7-piperidyl-1,3-diimethyl-lumazine] | 80 | 160 | 80 |
